Measurements from ChEMBL document CHEMBL4373746, “Structural attributes influencing unbound tissue distribution” (Eur J Med Chem, 2020).

Key:
[1] = Fraction unbound in Wistar Han rat plasma at 2 uM incubated for 6 hrs by equilibrium dialysis method
[2] = Fraction unbound in Wistar Han rat white adipose tissue at 2 uM incubated for 6 hrs by equilibrium dialysis method
[3] = Fraction unbound in Wistar Han rat brain at 2 uM incubated for 6 hrs by equilibrium dialysis method
[4] = Fraction unbound in Wistar Han rat heart at 2 uM incubated for 6 hrs by equilibrium dialysis method
[5] = Fraction unbound in Wistar Han rat liver at 2 uM incubated for 6 hrs by equilibrium dialysis method
[6] = Fraction unbound in Wistar Han rat skeletal muscle at 2 uM incubated for 6 hrs by equilibrium dialysis method
[7] = Total plasma concentration in Wistar Han rat at 1 to 2 mg/kg, iv infused for 10 to 20 hrs by LC-MS/MS analysis; details: in vivo
[8] = Drug concentration in total white adipose tissue in Wistar Han rat at 1 to 2 mg/kg, iv infused for 10 to 20 hrs by LC-MS/MS analysis; details: in vivo
[9] = Drug concentration in total brain in Wistar Han rat at 1 to 2 mg/kg, iv infused for 10 to 20 hrs by LC-MS/MS analysis; details: in vivo
[10] = Drug concentration in total heart in Wistar Han rat at 1 to 2 mg/kg, iv infused for 10 to 20 hrs by LC-MS/MS analysis; details: in vivo
[11] = Drug concentration in total liver in Wistar Han rat at 1 to 2 mg/kg, iv infused for 10 to 20 hrs by LC-MS/MS analysis; details: in vivo
[12] = Drug concentration in total skeletal muscle in Wistar Han rat at 1 to 2 mg/kg, iv infused for 10 to 20 hrs by LC-MS/MS analysis; details: in vivo
[13] = Unbound tissue partition coefficient, ratio of drug level in heart to plasma in Wistar Han rat at 1 to 2 mg/kg, iv infused for 10 to 20 hrs by LC-MS/MS analysis; details: heart/plasma
[14] = Unbound tissue partition coefficient, ratio of drug level in brain to plasma in Wistar Han rat at 1 to 2 mg/kg, iv infused for 10 to 20 hrs by LC-MS/MS analysis; details: brain/plasma
[15] = Unbound tissue partition coefficient, ratio of drug level in adipose to plasma in Wistar Han rat at 1 to 2 mg/kg, iv infused for 10 to 20 hrs by LC-MS/MS analysis; details: adipose/plasma
[16] = Unbound tissue partition coefficient, ratio of drug level in liver to plasma in Wistar Han rat at 1 to 2 mg/kg, iv infused for 10 to 20 hrs by LC-MS/MS analysis; details: liver/plasma
[17] = Unbound tissue partition coefficient, ratio of drug level in skeletal muscle to plasma in Wistar Han rat at 1 to 2 mg/kg, iv infused for 10 to 20 hrs by LC-MS/MS analysis; details: skeletal muscle/plasma
[18] = Apparent permeability of the compound across dog RRCK cells by MDCK-LE assay

Row | SMILES | fraction unbound at 6 h, 2 µM [1] | fraction unbound at 6 h, 2 µM [2] | fraction unbound at 6 h, 2 µM [3] | fraction unbound at 6 h, 2 µM [4] | fraction unbound at 6 h, 2 µM [5] | fraction unbound at 6 h, 2 µM [6] | Cp [7] | Ct [8] | Ct [9] | Ct [10] | Ct [11] | Ct [12] | Kp uu [13] | Kp uu [14] | Kp uu [15] | Kp uu [16] | Kp uu [17] | Papp [18]
1 | COc1ccc(Cc2cc([C@@H]3OC4(COC4)[C@@H](O)[C@H](O)[C@H]3O)ccc2C)cc1 | 0.212 | 0.132 | 0.0553 | 0.076 | 0.125 | 0.114 | 81 ng/mL | 20 ng/mL | 15 ng/mL | 260 ng/mL | 360 ng/mL | 110 ng/mL | 1.2 | 0.048 | 0.16 | 2.7 | 0.71 | 5.8 ×10⁻⁶ cm/s
2 | COc1cc(/C=C2\CCCN([C@@H](C)c3ccc(F)cc3)C2=O)ccc1-n1cnc(C)c1 | 0.00785 | 0.00185 | 0.00429 | 0.00363 | 0.00939 | 0.0012 | 210 ng/mL | 1800 ng/mL | 150 ng/mL | 360 ng/mL | 1200 ng/mL | 180 ng/mL | 0.77 | 0.4 | 2.3 | 7 | 0.13 | 16 ×10⁻⁶ cm/s
3 | COc1ccc2ncc(F)c([C@@H](O)CC[C@@H]3CCN(CCSc4cccs4)C[C@@H]3C(=O)O)c2c1 | 0.19 | 0.672 | 0.0945 | 0.15 | 0.191 | 0.132 | 79 ng/mL | 5.4 ng/mL | 0.69 ng/mL | 77 ng/mL | 350 ng/mL | 33 ng/mL | 0.75 | 0.0032 | 0.26 | 4.5 | 0.29 | 9.8 ×10⁻⁶ cm/s
4 | COc1ccc(-c2cc3c(C(=O)O)n[nH]c3cc2Cl)cc1 | 0.00439 | 0.334 | 0.0135 | 0.0256 | 0.0193 | 0.0398 | 96 ng/mL | 1 ng/mL | 0.6 ng/mL | 29 ng/mL | 140 ng/mL | 1.9 ng/mL | 1.8 | 0.017 | 1.2 | 6.5 | 0.15 | 8.8 ×10⁻⁶ cm/s
5 | COc1ccc(-c2cc3c(S(=O)(=O)O)c[nH]c3cc2Cl)cc1 | 0.00473 | 0.347 | 0.0414 | 0.0523 | 0.0303 | 0.0546 | 330 ng/mL | 15 ng/mL | 4.2 ng/mL | 82 ng/mL | 380 ng/mL | 16 ng/mL | 2.9 | 0.13 | 3.8 | 8.7 | 0.6 | 2.3 ×10⁻⁶ cm/s
6 | O=C(NC1CC1)c1nc2cccnn2c1-c1ccc2ncnn2c1 | 0.511 | 0.709 | 0.886 | 0.746 | 0.439 | 0.304 | 50 ng/mL | 29 ng/mL | 68 ng/mL | 140 ng/mL | 210 ng/mL | 100 ng/mL | 4 | 2.5 | 0.95 | 3.9 | 1.3 | 27 ×10⁻⁶ cm/s
7 | O=C(O)[C@@H]1CCN(C(=O)n2cnc(-c3ccc(-c4cnc(N5CCOCC5)nc4)cc3)n2)[C@@H](c2ccccc2)C1 | 0.00353 | 0.165 | 0.00874 | 0.0159 | 0.00824 | 0.017 | 88 ng/mL | 0.77 ng/mL | 0.38 ng/mL | 80 ng/mL | 1.5 ng/mL | 20 ng/mL | 4.2 | 0.0018 | 0.024 | 0.037 | 1.1 | 17 ×10⁻⁶ cm/s
8 | CC(C)(O)CS(=O)(=O)c1ccc2c(c1)nc(C(C)(C)C)n2CC1CCOCC1 | 0.469 | 0.786 | 0.538 | 0.321 | 0.437 | 0.203 | 55 ng/mL | 55 ng/mL | 6.2 ng/mL | 91 ng/mL | 320 ng/mL | 60 ng/mL | 1.1 | 0.13 | 1.7 | 5.4 | 0.48 | 28 ×10⁻⁶ cm/s
9 | O=C(NC(c1ccccc1)c1ccccc1)C1CC1 | 0.0667 | 0.0208 | 0.079 | 0.1 | 0.12 | 0.0833 | 79 ng/mL | 880 ng/mL | 200 ng/mL | 230 ng/mL | 230 ng/mL | 40 ng/mL | 4.7 | 3.2 | 3.9 | 5.4 | 0.68 | 35 ×10⁻⁶ cm/s
10 | O=C(O)[C@@H]1CCCN(C(=O)n2cnc(-c3ccc(-c4cnc(N5CCOCC5)nc4)cc3)n2)[C@H]1c1ccccc1 | 0.00273 | 0.089 | 0.00251 | 0.00542 | 0.00643 | 0.00554 | 120 ng/mL | 8 ng/mL | 1.5 ng/mL | 59 ng/mL | 860 ng/mL | 18 ng/mL | 1.1 | 0.0089 | 2.5 | 18 | 0.3 | 7.9 ×10⁻⁶ cm/s
11 | Cc1ccc(CC(C)(C)NC[C@@H](O)CO[C@H](C)c2ccccc2-c2ccc(C(=O)O)c(C)c2)cc1F | 0.00353 | 0.126 | 0.0111 | 0.0129 | 0.0134 | 0.021 | 120 ng/mL | 8 ng/mL | 0.38 ng/mL | 56 ng/mL | 220 ng/mL | 17 ng/mL | 1.8 | 0.0018 | 2.5 | 7.1 | 0.85 | 4.4 ×10⁻⁶ cm/s
12 | COCCCN1C[C@H](C)N(C(=O)N2Cc3c(NC(=O)c4ccccn4)n[nH]c3C2(C)C)C[C@H]1C | 0.614 | 0.329 | 0.0796 | 0.341 | 0.375 | 0.385 | 30 ng/mL | 27 ng/mL | 3.4 ng/mL | 110 ng/mL | 170 ng/mL | 68 ng/mL | 2.2 | 0.015 | 0.51 | 3.8 | 1.5 | 21 ×10⁻⁶ cm/s
13 | Cc1nc2cc(-c3cc(F)cc(C#N)c3)ccc2s1 | 0.00655 | 0.000864 | 0.00394 | 0.0101 | 0.00815 | 0.0047 | 31 ng/mL | 570 ng/mL | 73 ng/mL | 66 ng/mL | 480 ng/mL | 25 ng/mL | 3.3 | 1.5 | 2.6 | 20 | 0.6 | 34 ×10⁻⁶ cm/s
